Data on 1 molecule can be found in US5512576A, “2-substituted 1,2,5,-thiadiazolidin-3-one 1,1-dioxides and compositions and method of use thereof” (Sterling Winthrop Inc., priority 1994, dated 1996).

In the test the target is T1, human leukocyte elastase (Homo sapiens, UniProt P08246).
T1 sequence (P08246 30-267): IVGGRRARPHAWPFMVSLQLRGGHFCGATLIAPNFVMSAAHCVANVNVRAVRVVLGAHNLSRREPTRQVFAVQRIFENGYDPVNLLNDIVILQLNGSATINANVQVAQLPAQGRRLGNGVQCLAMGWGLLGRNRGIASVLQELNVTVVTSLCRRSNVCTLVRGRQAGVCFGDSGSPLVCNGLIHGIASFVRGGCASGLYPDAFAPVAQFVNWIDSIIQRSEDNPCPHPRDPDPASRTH
Put plainly: human leukocyte elastase (HLE) inhibition, in vitro, substrate MeOSuc-Ala-Ala-Pro-Val-pNA. To be noted: pH 7.8 at 25° C., absorbance at 410 nm, read-out: Ki, human leukocyte elastase inhibitory activity. The test is classed as biochemical. As to the method: The test compound (inhibitor) is dissolved in DMSO in a vial to produce an inhibitor stock solution which has a concentration in the range of 200-1000 μM. The inhibitor stock solution is diluted (1:4, 1:16 and 1:64) into assay vials (vials 1, 2 and 3 respectively) containing 2.4 mL of buffer solution (50 mM N- 2-hydroxyethyl!piperazine-N'- 2-ethanesulfonic acid!/NaOH, 500 mM NaCl, pH 7.8 at 25° C.) and DMSO is added so that the total volume in each vial is 3.2 mL. 70 μL, 50 μL, 35 μL and 25 μL of inhibitor from assay vial 1 is placed into the first four wells of a 96-well microtiter plate and each well is made up to 90 μL total volume with the addition of a 25% DMSO/buffer solution. […]
The 96-well microtiter plate is placed into a Microplate Reader #89815A spectrophotometer and 110 BL of the enzyme solution (prepared as follows: a mixture of 20 mL of buffer solution and 20 mg of bovine serum albumen is gently vortexed in a scintillation vial and 5 BL HLE stock solution (1 mg/mL dissolved in deionized water) is added) is added simultaneously to each of the 16 wells. Each of the solutions in the wells is throughly mixed and then the time-dependent absorbance data is collected at an absorbance of 410 nm until the assay is complete. […]
A plot of the absorbance versus time data thus obtained affords progress curves the final slope of which is equal to the final steady-state velocities (VF). […]

With `CC(C)CCC1C(=O)N(COc2cc(=O)n3ccccc3n2)S(=O)(=O)N1C` (stereo not shown) [Example 1(j), 2-(4-oxo-4-H-pyrido 1,2-a!pyrimidin-2-yl-oxymethyl)-4-(3-methylbutyl)-5-methyl-1,2,5-thiadiazolidin-3-one 1,1-dioxide], the Ki came out at 0.79 nM.
